The record followed here is patent publication US20120029041A1, “2-ARYL IMIDAZOLINE DERIVATIVES” (MSD K.K., priority 2009, published 2012).

Each structure is given as a SMILES string.

For the experiment, the target named is T1, human QRFP receptor (GPR103) (Homo sapiens, UniProt Q96P65).
T1 construct: expressed in transfected cells; host or cells: NFAT β-Lactamase CHO-K1 host cells (Aurora); membrane specimen
T1 sequence (Q96P65 1-431): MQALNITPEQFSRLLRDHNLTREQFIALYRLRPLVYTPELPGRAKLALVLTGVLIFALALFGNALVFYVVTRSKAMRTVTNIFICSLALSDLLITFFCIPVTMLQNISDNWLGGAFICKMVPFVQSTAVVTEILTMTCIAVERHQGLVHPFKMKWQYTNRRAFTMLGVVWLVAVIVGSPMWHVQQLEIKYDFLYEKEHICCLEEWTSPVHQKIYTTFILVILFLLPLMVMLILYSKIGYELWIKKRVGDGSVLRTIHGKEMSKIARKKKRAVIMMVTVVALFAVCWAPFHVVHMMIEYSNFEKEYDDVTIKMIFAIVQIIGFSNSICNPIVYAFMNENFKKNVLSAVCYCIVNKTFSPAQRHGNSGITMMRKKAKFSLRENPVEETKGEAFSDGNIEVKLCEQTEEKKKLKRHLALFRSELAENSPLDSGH
As to the kind of experiment: QRFP43 Binding Inhibition Test. To be noted: membrane specimen from GPR103 expressing CHO-K1 cells, [125I] QRFP43, 25° C., 1 hour; read-out: IC50 for the specific [125I] QRFP43 binding. The text has this: The cDNA sequence [Accession No. NM_198179] that codes for human QRFP receptor (GPR103) was cloned into an expression vector pEF1V5-HisB (Invitrogen). The expression vector so prepared was transfected into NFAT [β-Lactamase CHO-K1 host cells (Aurora) to obtain QRFP receptor (GPR103) expressing cells, using the cationic lipid method [see Proceedings of the National Academy of Sciences of the United States of America, Vol. 84, p. 7413 (1987)].
The membrane specimen prepared from the QRFP receptor (GPR103) expressing cells was incubated at 25° C. for 1 hour with a test compound and 20,000 cpm [^125I] QRFP43 (PerkinElmer, Inc.) in an assay buffer (50 mM Tris-HCl, 1 mM EDTA, and 0.1% BSA, pH 7.4), followed by filtration using a glass filter GF/C. After washing with a 50 mM Tris-HCl (containing 2 mM EDTA, 10 mM MgCl2, and 0.04% Tween-20) buffer at pH 7.4, the radioactivity on the glass filter was determined using a gamma counter. Non-specific binding was measured in the presence of 1 μM peptide QRFP43, and 50% inhibition concentration (IC50 value) of the test compound for the specific [^125I] QRFP43 binding was determined [see Endocrinology, Vol. 131, p. 2090 (1992)].
Broadly, the IC50 is the concentration needed to halve the response being measured. On to `Clc1ccc(C2=NCCN2C(c2ccccc2)c2ccccc2)cc1` [Example 2, 2-(4-Chlorophenyl)-1-(diphenylmethyl)-4,5-dihydro-1H-imidazole], for which the IC50 amounted to 17 nM. With `Cc1ccc(C2=NCCN2C(c2ccccc2)c2ccccc2)cc1` [Example 5, 1-(Diphenylmethyl)-2-(4-methylphenyl)-4,5-dihydro-1H-imidazole] the figure was 37 nM; with `COc1ccc(C2=NCCN2C(c2ccccc2)c2ccccc2)cc1` [Example 6, 1-(Diphenylmethyl)-2-(4-methoxyphenyl)-4,5-dihydro-1H-imidazole], 11 nM.
